Measurements published in ChEMBL document CHEMBL1137553, “An expeditious synthesis of tamoxifen, a representative SERM (selective estrogen receptor modulator), via the three-component coupling reaction among aromatic aldehyde, cinnamyltrimethylsilane, and beta-chlorophenetole” (Bioorg Med Chem, 2007).
≈ marks a conversion by molar mass, not a printed value.

Tests used:
HL-60 [1] = test: Antiproliferative activity against human HL60 cells assessed as cell viability at 5 ug/ml after 4 hrs by MTT assay; assay type: functional; conditions: HL-60, 4 h, read-out: Activity
HL-60 [2] = test: Antiproliferative activity against human HL60 cells assessed as cell viability at 10 ug/ml after 4 hrs by MTT assay; assay type: functional; conditions: HL-60, 4 h, read-out: Activity
HL-60 [3] = test: Antiproliferative activity against human HL60 cells assessed as cell viability at 20 ug/ml after 4 hrs by MTT assay; assay type: functional; conditions: HL-60, 4 h, read-out: Activity
HL-60 [4] = test: Growth inhibition of human HL60 cells after 4 hrs by MTT assay; assay type: functional, cell-based; conditions: HL-60, 4 h
HL-60 [5] = test: Antiproliferative activity against human HL60 cells assessed as cell viability after 4 hrs by MTT assay; assay type: functional
HL-60 [6] = test: Antiproliferative activity against human HL60 cells assessed as cell viability at 1 ug/ml after 4 hrs by MTT assay; assay type: functional; conditions: HL-60, 4 h, read-out: Activity

Compound `CC/C(=C(/c1ccc(Br)cc1)c1ccc(OCCN(C)C)cc1)c1ccccc1` has a viability at 5 µg/mL (HL-60 [1]) of 59.2%, a viability at 10 µg/mL (HL-60 [2]) of 13.2% and a viability at 20 µg/mL (HL-60 [3]) of 7.01%. The IC50 (HL-60 [4]) was 6 µg/mL (≈ 13.3 µM), the Activity (HL-60 [5]) was 100% and the viability at 1 µg/mL (HL-60 [6]) was 99.9%.

`CC/C(=C(/c1ccc(OCCN(C)C)cc1)c1cccc(I)c1)c1ccccc1` was tested, and the viability at 5 µg/mL (HL-60 [1]) was 104%, the viability at 10 µg/mL (HL-60 [2]) was 97.2% and the viability at 20 µg/mL (HL-60 [3]) was 36%. For the same compound, the IC50 (HL-60 [4]) was 19 µg/mL (≈ 38.2 µM), the Activity (HL-60 [5]) was 100% and the viability at 1 µg/mL (HL-60 [6]) was 109%.

`CC/C(=C(\c1ccc(I)cc1)c1ccc(OCCN2CCCC2)cc1)c1ccccc1` [IDOXIFENE] was tested, and the viability at 5 µg/mL (HL-60 [1]) was 82.7%, the viability at 10 µg/mL (HL-60 [2]) was 25.5% and the viability at 20 µg/mL (HL-60 [3]) was 8.72%. For the same compound, the IC50 (HL-60 [4]) was 7.7 µg/mL (≈ 14.7 µM), the Activity (HL-60 [5]) was 100% and the viability at 1 µg/mL (HL-60 [6]) was 106%.

Compound `CC/C(=C(\c1ccccc1)c1ccc(OCCN(C)C)cc1)c1ccccc1` [TAMOXIFEN] has a viability at 5 µg/mL (HL-60 [1]) of 53.5%, a viability at 10 µg/mL (HL-60 [2]) of 15.9% and a viability at 20 µg/mL (HL-60 [3]) of 5.45%. For the same compound, the IC50 (HL-60 [4]) was 5.9 µg/mL (≈ 15.9 µM), the Activity (HL-60 [5]) was 100% and the viability at 1 µg/mL (HL-60 [6]) was 96.2%.
